In ChEMBL document CHEMBL5214967, “Natural Product-Inspired Targeted Protein Degraders: Advances and Perspectives” (J Med Chem, 2022):

Tests used:
[1] = Degradation of ER in human MCF7 cells; type: cell-based
LNCaP = assay: Cytotoxicity against human LNCap cells; type: functional, cell-based
[2] = biological target: Kelch-like ECH-associated protein 1/Cyclin-dependent kinase 9 (Homo sapiens, UniProt P50750+Q14145); assay: PROTAC activity at Keap1/CDK9 in human MOLT4 cells measured after 16 hrs; type: cell-based; conditions: molt-4
CWR22R = assay: Cytotoxicity against human 22Rv1 cells; type: functional, cell-based
DU-145 = assay: Cytotoxicity against human DU-145 cells; type: functional, cell-based
[3] = biological target: von Hippel-Lindau disease tumor suppressor/Estrogen receptor (Homo sapiens, UniProt P03372+P40337); assay: PROTAC activity at VHL/ERalpha in human MCF7 cells assessed as degradation of ERalpha; type: cell-based
[4] = biological target: von Hippel-Lindau disease tumor suppressor/G-protein coupled estrogen receptor 1 (Homo sapiens, UniProt Q99527+P40337); assay: PROTAC activity at VHL/GPER (unknown origin) assessed as degradation of GPER; type: protein assay
MCF7 = assay: Cytotoxicity against human MCF7 cells by inducing cell cycle arrest incubated for 30 mins measured by FacScallibur flow cytometric analysis; type: functional, cell-based; conditions: MCF7, 0.5 h
SK-BR-3 = assay: Cytotoxicity against human SK-BR-3 cells by inducing cell cycle arrest incubated for 30 mins measured by FacScallibur flow cytometric analysis; type: functional, cell-based; conditions: SK-BR-3, 0.5 h
A549 [5] = assay: Cytotoxicity against human A549 cells incubated for 24 hrs by MTT assay; type: functional, cell-based; conditions: A549, 24 h
Huh-7 [6] = assay: Cytotoxicity against human Huh-7 cells incubated for 24 hrs by MTT assay; type: functional, cell-based; conditions: Huh-7, 24 h
HepG2 [7] = assay: Cytotoxicity against human HepG2 cells incubated for 24 hrs by MTT assay; type: functional, cell-based; conditions: HepG2, 24 h
[8] = biological target: Protein cereblon/E3 ubiquitin-protein ligase Mdm2 (Homo sapiens) (UniProt Q00987+Q96SW2); assay: PROTAC activity at CRBN/MDM2 (unknown origin) assessed as degradation of MDM2 relative to control; type: protein assay
A549 [9] = assay: Cytotoxicity against human A549 cells measured after 24 hrs by MTT assay; type: functional, cell-based; conditions: A549, 24 h
Huh-7 [10] = assay: Cytotoxicity against human Huh-7 cells measured after 24 hrs by MTT assay; type: functional, cell-based; conditions: Huh-7, 24 h
HepG2 [11] = assay: Cytotoxicity against human HepG2 cells measured after 24 hrs by MTT assay; type: functional, cell-based; conditions: HepG2, 24 h
[12] = biological target: T1, Kelch-like ECH-associated protein 1/Bromodomain-containing protein 4 (Homo sapiens, UniProt O60885+Q14145); assay: PROTAC activity at Keap1/BRD4 in human MDA-MB-231 cells assessed as degradation of BRD4 measured after 10 hrs; type: cell-based
[13] = biological target: T1, Kelch-like ECH-associated protein 1/Bromodomain-containing protein 4; assay: PROTAC activity at Keap1/BRD4 in human MDA-MB-231 cells assessed as degradation of BRD4 measured after 5 hrs; type: cell-based
[14] = biological target: von Hippel-Lindau disease tumor suppressor/3-hydroxy-3-methylglutaryl-coenzyme A reductase (Homo sapiens, UniProt P04035+P40337); assay: PROTAC activity at VHL/HMGCR in human HepG2 cells assessed as degradation of HMGCR measured at 1 uM after 16 hrs relative to control; type: cell-based
[15] = biological target: T2, 3-hydroxy-3-methylglutaryl-coenzyme A reductase (Homo sapiens, UniProt P04035); assay: Inhibition of HMGCR (unknown origin)
T2 sequence (P04035 whole entry): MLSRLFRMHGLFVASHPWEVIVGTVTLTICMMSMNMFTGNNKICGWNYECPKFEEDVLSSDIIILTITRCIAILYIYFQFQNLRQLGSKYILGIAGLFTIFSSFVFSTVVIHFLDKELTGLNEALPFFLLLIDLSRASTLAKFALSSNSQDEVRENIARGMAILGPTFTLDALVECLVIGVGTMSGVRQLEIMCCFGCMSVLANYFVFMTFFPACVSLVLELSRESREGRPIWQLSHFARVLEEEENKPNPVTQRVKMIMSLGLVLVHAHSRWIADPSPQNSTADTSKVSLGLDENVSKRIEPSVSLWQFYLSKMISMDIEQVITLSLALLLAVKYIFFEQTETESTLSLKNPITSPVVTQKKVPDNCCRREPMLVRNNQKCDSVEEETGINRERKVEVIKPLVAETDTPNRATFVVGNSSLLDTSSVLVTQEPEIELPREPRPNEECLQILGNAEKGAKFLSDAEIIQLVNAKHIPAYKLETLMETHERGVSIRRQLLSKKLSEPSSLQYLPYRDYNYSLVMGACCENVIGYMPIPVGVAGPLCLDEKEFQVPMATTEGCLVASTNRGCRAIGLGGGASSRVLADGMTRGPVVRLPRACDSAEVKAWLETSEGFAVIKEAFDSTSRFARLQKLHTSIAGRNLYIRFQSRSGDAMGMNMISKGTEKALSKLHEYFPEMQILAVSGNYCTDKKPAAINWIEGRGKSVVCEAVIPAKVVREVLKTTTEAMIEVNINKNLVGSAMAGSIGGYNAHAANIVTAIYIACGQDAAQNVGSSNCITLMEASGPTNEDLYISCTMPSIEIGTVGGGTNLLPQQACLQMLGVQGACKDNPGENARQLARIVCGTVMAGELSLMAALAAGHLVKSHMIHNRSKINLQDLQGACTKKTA

[16] = biological target: T2, 3-hydroxy-3-methylglutaryl-coenzyme A reductase; assay: Degradation of HMGCR (unknown origin) expressed in CHO-7 cells; type: cell-based
[17] = biological target: T3, Protein cereblon/Protein deacetylase HDAC6 (Homo sapiens, UniProt Q9UBN7+Q96SW2); assay: PROTAC activity at CRBN/HDAC6 (unknown origin) assessed as degradation of HDAC6; type: protein assay
[18] = biological target: T3, Protein cereblon/Protein deacetylase HDAC6; assay: PROTAC activity at CRBN/HDAC6 (unknown origin) assessed as degradation of HDAC6 relative to control; type: protein assay
Target sequence in this assay (Q96SW2 whole entry, looked up): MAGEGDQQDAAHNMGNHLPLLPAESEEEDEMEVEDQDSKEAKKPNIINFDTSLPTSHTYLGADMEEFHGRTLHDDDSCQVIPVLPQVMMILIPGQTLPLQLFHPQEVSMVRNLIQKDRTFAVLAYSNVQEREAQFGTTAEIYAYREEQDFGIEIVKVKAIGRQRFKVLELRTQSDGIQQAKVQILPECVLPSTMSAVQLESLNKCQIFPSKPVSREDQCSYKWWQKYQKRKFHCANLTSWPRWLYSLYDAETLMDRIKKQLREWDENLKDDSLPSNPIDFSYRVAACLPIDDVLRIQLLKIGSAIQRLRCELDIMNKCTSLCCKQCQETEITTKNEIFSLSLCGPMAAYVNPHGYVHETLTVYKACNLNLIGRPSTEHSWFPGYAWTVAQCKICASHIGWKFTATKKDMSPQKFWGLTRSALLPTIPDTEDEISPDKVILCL
Target sequence in this assay (Q9UBN7 whole entry, looked up): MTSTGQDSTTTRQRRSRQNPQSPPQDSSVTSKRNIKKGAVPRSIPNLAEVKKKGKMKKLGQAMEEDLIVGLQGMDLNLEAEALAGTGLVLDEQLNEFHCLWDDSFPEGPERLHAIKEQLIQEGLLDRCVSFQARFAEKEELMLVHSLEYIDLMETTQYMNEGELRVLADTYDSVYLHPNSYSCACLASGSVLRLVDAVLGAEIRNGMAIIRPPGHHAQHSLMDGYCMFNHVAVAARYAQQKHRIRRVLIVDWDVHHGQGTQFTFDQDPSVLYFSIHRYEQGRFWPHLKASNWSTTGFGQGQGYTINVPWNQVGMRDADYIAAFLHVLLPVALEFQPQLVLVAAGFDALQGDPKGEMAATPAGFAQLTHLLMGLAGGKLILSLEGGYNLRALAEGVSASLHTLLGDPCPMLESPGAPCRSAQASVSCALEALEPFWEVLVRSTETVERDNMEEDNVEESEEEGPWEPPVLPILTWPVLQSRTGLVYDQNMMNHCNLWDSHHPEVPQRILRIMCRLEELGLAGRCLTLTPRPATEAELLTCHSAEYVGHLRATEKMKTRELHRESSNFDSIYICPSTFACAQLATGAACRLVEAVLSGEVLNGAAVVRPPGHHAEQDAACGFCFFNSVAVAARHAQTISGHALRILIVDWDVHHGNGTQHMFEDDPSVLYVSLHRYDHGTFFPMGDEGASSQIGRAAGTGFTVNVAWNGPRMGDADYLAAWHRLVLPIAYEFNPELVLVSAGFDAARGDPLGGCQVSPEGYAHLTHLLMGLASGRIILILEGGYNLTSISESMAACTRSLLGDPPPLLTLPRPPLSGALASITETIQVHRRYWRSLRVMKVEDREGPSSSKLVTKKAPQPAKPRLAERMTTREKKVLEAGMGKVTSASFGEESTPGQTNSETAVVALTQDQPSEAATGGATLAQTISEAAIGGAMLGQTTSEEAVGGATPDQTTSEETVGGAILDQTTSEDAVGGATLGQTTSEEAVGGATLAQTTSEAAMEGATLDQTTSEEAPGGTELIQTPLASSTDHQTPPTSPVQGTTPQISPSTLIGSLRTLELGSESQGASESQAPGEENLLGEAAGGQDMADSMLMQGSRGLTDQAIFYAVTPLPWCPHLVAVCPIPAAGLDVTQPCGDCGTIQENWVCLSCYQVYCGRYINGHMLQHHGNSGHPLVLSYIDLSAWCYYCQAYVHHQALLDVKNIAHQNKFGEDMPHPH

T1 sequence (Q14145 whole entry, looked up, other chains not shown): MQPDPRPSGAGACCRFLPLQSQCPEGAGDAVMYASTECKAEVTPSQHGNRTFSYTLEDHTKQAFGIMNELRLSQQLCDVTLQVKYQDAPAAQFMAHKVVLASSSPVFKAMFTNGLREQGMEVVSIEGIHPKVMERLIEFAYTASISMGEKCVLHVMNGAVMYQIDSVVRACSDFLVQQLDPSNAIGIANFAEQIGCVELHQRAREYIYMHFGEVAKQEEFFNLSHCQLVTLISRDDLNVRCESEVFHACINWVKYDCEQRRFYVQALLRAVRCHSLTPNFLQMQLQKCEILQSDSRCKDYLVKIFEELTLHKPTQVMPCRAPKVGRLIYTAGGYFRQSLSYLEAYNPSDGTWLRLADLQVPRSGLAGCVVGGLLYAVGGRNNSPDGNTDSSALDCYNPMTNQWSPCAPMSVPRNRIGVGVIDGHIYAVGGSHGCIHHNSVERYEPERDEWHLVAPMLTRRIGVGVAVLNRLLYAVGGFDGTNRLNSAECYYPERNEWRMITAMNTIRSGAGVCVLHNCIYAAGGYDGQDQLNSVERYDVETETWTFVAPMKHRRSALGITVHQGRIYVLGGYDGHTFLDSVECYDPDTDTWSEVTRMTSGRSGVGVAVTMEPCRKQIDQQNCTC
von Hippel-Lindau disease tumor suppressor/G-protein coupled estrogen receptor 1, sequence (Q99527 whole entry): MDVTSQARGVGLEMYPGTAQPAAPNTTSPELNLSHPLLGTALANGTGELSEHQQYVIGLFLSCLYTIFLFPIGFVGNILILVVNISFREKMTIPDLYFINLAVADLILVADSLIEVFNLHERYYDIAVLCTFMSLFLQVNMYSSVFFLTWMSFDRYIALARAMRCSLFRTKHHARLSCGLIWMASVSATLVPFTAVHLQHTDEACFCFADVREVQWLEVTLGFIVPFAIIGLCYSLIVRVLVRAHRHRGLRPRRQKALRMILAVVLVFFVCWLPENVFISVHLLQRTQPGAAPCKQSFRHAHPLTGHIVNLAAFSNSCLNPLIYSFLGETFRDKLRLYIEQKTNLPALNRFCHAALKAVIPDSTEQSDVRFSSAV
von Hippel-Lindau disease tumor suppressor/G-protein coupled estrogen receptor 1, sequence (P40337 whole entry): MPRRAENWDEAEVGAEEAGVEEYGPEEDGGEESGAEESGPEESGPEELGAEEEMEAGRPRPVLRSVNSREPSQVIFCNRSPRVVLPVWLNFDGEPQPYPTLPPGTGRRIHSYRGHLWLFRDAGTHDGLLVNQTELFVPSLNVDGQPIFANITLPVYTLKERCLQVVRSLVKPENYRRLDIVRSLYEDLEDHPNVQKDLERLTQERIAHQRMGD
von Hippel-Lindau disease tumor suppressor/Estrogen receptor, sequence (P03372 whole entry): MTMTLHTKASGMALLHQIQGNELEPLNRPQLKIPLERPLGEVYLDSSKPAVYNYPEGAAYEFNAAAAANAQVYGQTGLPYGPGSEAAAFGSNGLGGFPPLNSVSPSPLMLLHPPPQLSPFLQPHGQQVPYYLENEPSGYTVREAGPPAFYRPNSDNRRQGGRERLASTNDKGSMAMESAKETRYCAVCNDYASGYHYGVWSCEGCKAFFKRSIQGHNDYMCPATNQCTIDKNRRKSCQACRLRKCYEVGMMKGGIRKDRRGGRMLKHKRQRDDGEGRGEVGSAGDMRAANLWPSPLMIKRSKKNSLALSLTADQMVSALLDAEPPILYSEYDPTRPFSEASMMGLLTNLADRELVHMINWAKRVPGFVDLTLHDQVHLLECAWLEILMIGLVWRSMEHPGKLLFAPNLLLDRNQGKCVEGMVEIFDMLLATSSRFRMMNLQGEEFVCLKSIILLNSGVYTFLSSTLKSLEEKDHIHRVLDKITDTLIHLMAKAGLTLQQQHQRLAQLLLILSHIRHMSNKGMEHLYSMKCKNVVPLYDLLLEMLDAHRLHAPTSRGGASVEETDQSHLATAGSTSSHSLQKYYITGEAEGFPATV
von Hippel-Lindau disease tumor suppressor/Estrogen receptor, sequence (P40337 whole entry): as the sequence (P40337 whole entry) above
Kelch-like ECH-associated protein 1/Cyclin-dependent kinase 9, sequence (P50750 whole entry): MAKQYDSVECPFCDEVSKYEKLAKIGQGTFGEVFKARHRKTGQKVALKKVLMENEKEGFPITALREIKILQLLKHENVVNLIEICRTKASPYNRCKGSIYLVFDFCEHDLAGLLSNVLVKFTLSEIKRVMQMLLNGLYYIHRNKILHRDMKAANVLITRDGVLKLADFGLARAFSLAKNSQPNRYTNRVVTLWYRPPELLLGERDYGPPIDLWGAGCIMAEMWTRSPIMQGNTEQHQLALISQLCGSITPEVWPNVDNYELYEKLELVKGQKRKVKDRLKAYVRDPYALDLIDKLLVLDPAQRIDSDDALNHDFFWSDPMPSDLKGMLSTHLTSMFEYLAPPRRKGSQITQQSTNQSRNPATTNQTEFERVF
Kelch-like ECH-associated protein 1/Cyclin-dependent kinase 9, sequence (Q14145 whole entry): as the sequence (Q14145 whole entry, looked up, other chains not shown) above
von Hippel-Lindau disease tumor suppressor/3-hydroxy-3-methylglutaryl-coenzyme A reductase, sequence (P40337 whole entry, looked up, one chain of several): as the sequence (P40337 whole entry) above

CC1=CC(=O)[C@H]2/C(C=O)=C\C[C@H]3[C@@H]([C@@H](C)/C=C\C=C/C(=O)OCCOCCOCCOC(=O)CC45CC6CC(CC(C6)C4)C5)CC[C@]3(C)C[C@H]12 gave a DC50 [1] of 1000 nM.

COc1cc(/C=C/C(=O)N2CCC=CC2=O)cc(OC)c1OCCN1CCN(C(=O)CN2CCC(C(=O)Nc3ncc(SCc4ncc(C(C)(C)C)o4)s3)CC2)CC1 showed an EC50 (LNCaP) of 3.2 nM, a DC50 [2] of 9 nM and an EC50 (CWR22R) of 6.4 nM. It also gave an EC50 (DU-145) of 8.5 nM.

Cc1ncsc1-c1ccc(CNC(=O)[C@@H]2C[C@@H](O)CN2C(=O)[C@@H](NC(=O)COCCOCCOCCOCC(=O)O[C@H]2CC[C@H]3[C@@H]4CCc5cc(O)ccc5[C@H]4CC[C@]23C)C(C)(C)C)cc1 gave a DC50 [3] of 10000 nM, a DC50 [4] of 100000 nM and an IC50 (MCF7) of 9000 nM. For the same compound, the IC50 (SK-BR-3) was 10900 nM.

For C[C@H]1[C@H](C)CCC2(C(=O)NCCOCCOCCOCCNc3cccc4c3C(=O)N(C3CCC(=O)NC3=O)C4=O)CC[C@]3(C)C(=CC[C@@H]4[C@@]5(C)CCC(O)C(C)(C)[C@@H]5CC[C@]43C)[C@H]12 (some centres not stated), the IC50 (A549 [5]) was 230 nM, the IC50 (Huh-7 [6]) was 230 nM and the IC50 (HepG2 [7]) was 230 nM. It also gave an Emax [8] of 75%, an IC50 (A549 [9]) of 230 nM and an IC50 (Huh-7 [10]) of 390 nM. The IC50 (HepG2 [11]) was 380 nM.

Compound CC1=C(O)C(=O)C=C2C1=CC=C1[C@@]2(C)CC[C@@]2(C)[C@@H]3C[C@](C)(C(=O)NCCCOCCOCCOCCCNC(=O)C[C@@H]4N=C(c5ccc(Cl)cc5)c5c(sc(C)c5C)-n5c(C)nnc54)CC[C@]3(C)CC[C@]12C has a DC50 [12] of 9.6 nM and a DC50 [13] of 29 nM.

Work on Cc1ncsc1-c1ccc(CNC(=O)[C@@H]2C[C@@H](O)CN2C(=O)[C@H](NC(=O)CCCCCCCCCCNC(=O)OC2C[C@@H](C)C=C3C=C[C@H](C)[C@H](CC[C@@H]4C[C@@H](O)CC(=O)O4)[C@H]32)C(C)(C)C)cc1 (some centres not stated) yielded an Emax [14] of 56% and an IC50 [15] of 1300 nM.

In the case of C=CCC(O)(CC=C)CCC[C@@H](C)[C@H]1CC[C@H]2[C@@H]3[C@@H](O)C=C4C(C)(C)[C@@H](O)CC[C@]4(C)[C@H]3CC[C@]12C, the DC50 [16] is reported as 390 nM.

Work on O=C(CCCO/N=C1/C(=C2/C(=O)N(Cc3cn(CCOCCNc4cccc5c4C(=O)N(C4CCC(=O)NC4=O)C5=O)nn3)c3ccccc32)Nc2ccccc21)NO (configuration not stated) yielded a DC50 [17] of 109 nM and an Emax [18] of 88%.

Cc1ncsc1-c1ccc(CNC(=O)[C@@H]2C[C@@H](O)CN2C(=O)[C@@H](NC(=O)COCCOCCOCCOCC(=O)NCCOCCOCCOCCOCCOCCOCCOCCOCCC(=O)O[C@H]2CC[C@H]3[C@@H]4CCc5cc(O)ccc5[C@H]4CC[C@]23C)C(C)(C)C)cc1 showed a DC50 [3] of 10000 nM, a DC50 [4] of 100000 nM and an IC50 (MCF7) of 17000 nM. The IC50 (SK-BR-3) was 11100 nM.
